Patent publication US6514997B2, “Antipicornaviral compounds and compositions, their pharmaceutical uses, and materials for their synthesis” (Agouron Pharmaceuticals, Inc., priority 1999, dated 2003)
Like-named read-outs stand apart in the source and are kept apart here.

Legend:
[1] = system: Coxsackievirus type A-21 (CAV-21); assay: Anticoxsackieviral cell culture assay (XTT, EC50), CAV-21; type: cell-based, coxsackievirus A-21 in H1-HeLa cells; settings: Coxsackievirus; CAV-21; read-out: EC50
Protocol: (§1) Anticoxsackieviral Cell Culture Assay:
(§2) Coxsackievirus types A-21 (CAV-21) and B3 (CVB3) were purchased from American Type Culture Collection (ATCC, Rockville, Md.). Virus stocks were propagated and antiviral assays were performed in H1-HeLa cells (ATCC). Cells were grown in minimal essential medium with 10% fetal bovine serum (Life Technologies, Gaithersburg, Md.). The ability of the compounds of this invention to protect cells against either CAV-21 or CVB3 infection was measured by the XTT dye reduction method. This method is described in Weislow et al., J. Natl. Cancer Inst. (1989), vol. 81, 577-586. H1-HeLa cells were infected with CAV-21 or CVB3 at a multiplicity of infection (m.o.i.) of 0.025 or 0.075, respectively, or mock-infected with medium only. H1-HeLa cells were plated at 4×10^4 cells per well in a 96-well plate and incubated with appropriate concentrations of the test compound. One day (CVB3) or two days (CAV-21) later, XTT/PMS was added to test plates and the amount of formazan produced was quantified spectrophotometrically at 450/650 nm. […] The therapeutic index (TI) was calculated by dividing the CC50 by the EC50.

[2] = Cytotoxicity (CC50) in mock-infected H1-HeLa cells, XTT dye reduction; type: cell-based, human; settings: human, H1-HeLa cells; for CC50 at 1 day: line of CVB3
How it was run: (§3)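 XTT dye reduction (formazan, 450/650 nm) in H1-HeLa cells, mock-infected, gave CC50.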

[3] = target: T1, Recombinant rhinovirus 3C protease, serotype 14 (Human rhinovirus 14, UniProt P03303); assay: Inhibition of rhinovirus 3C protease (FRET assay, kobs/[I]), serotype 14; type: biochemical; settings: pH 7.6, read-out: kobs/[I] (3C protease inhibition activity)
T1 construct: Recombinant rhinovirus 3C proteases; made in house
T1 sequence (P03303 1538-1719): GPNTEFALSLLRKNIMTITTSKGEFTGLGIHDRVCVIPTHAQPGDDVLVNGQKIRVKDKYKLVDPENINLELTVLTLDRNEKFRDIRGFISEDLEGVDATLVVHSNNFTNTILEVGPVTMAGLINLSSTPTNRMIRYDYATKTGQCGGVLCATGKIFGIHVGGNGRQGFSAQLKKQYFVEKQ
How it was run: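 kobs/[I] values came from progress curves of reactions started by adding 50-100 nM protease to buffer (50 mM tris pH 7.6, 1 mM EDTA, 2% DMSO) containing compound and ~1 μM quenched DABCYL-EDANS substrate. Rising EDANS fluorescence reported cleavage.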

[4] = system: Echovirus type 11 (ECHO 11); assay: Anti-echoviral cell culture assay (XTT, EC50), ECHO 11; type: cell-based, echovirus 11 in MRC-5 cells; settings: Enterovirus B; ECHO-11; read-out: EC50
Protocol: (§4) Anti-Echoviral and Anti-Enteroviral Cell Culture Assays
(§5) Echovirus type 11 (ECHO 11) was purchased from ATCC (Rockville, Md.). Virus stocks were propagated and antiviral assays were performed in MRC-5 cells (ATCC). Cells were grown in minimal essential medium with 10% fetal bovine serum (Life Technologies, Gaithersburg, Md.). The ability of the compounds of this invention to protect cells against ECHO 11 infection was measured by the XTT dye reduction method (Weislow et al., J. Natl. Cancer Inst. (1989), vol. 81, 577-586). MRC-5 cells were infected with ECHO 11 at an m.o.i. of 0.003 or 0.004, respectively, or mock-infected with medium only. Infected or uninfected cells were added at 1×10^4 cells per well and incubated with appropriate concentrations of compound. Four days later, XTT/PMS was added to test plates, and the amount of formazan produced was quantified spectrophotometrically at 450/650 nm. […] The therapeutic index (TI) was calculated by dividing the CC50 by the EC50. Activity of the compounds against enterovirus type 70 (EV 70) may be measured by the same assay as described above in this section. Enterovirus type 70 (EV 70) may be obtained from the American Type Culture Collection ATCC (Rockville, Md.).

HRV-14 = assay: Antirhinoviral H1-HeLa cell culture assay (XTT cell protection, EC50), HRV-14; type: cell-based, human rhinovirus (HRV) serotype-14 in H1-HeLa cells; settings: Rhinovirus B, HRV14, H1-HeLa
How it was run: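 XTT dye reduction (450/650 nm) measured survival of H1-HeLa cells two days after HRV-14 infection at m.o.i. 0.13 in the presence of compound, giving EC50. The therapeutic index is CC50 divided by EC50.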

[5] = Cytotoxicity (CC50) in uninfected MRC-5 cells, XTT dye reduction; type: cell-based, human; settings: human, MRC-5 cells, uninfected (mock-infected); line of ECHO-11
Protocol: as §5

MRC-5 cells = assay: as above; type: cell-based, human; settings: line of ENT-70
Protocol: as §5

[6] = system: enterovirus type 70 (EV 70); assay: Anti-enteroviral cell culture assay (XTT, EC50), EV 70; type: cell-based, enterovirus 70 in MRC-5 cells; settings: Enterovirus D; ENT-70
Protocol: as §4, §5

[7] = system: Coxsackievirus type B3 (CVB3); assay: Anticoxsackieviral cell culture assay (XTT, EC50), CVB3; type: cell-based, coxsackievirus B3 in H1-HeLa cells; settings: CVB3; read-out: EC50
Protocol: as §1, §2

[8] = system: strains of human rhinovirus (HRV); assay: Antirhinoviral H1-HeLa cell culture assay (XTT cell protection, EC50), other HRV strains; type: cell-based, human rhinovirus in H1-HeLa cells; settings: read-out: EC50
How it was run: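 Protection of H1-HeLa cells from rhinovirus was scored two days post-infection via XTT dye reduction read at 450/650 nm, alongside mock-infected cells for toxicity. CC50/EC50 gives the therapeutic index.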

[9] = Cytotoxicity (CC50), cell line not stated; type: cell-based
H1-HeLa cells = assay: Cytotoxicity (CC50) in mock-infected H1-HeLa cells, XTT dye reduction; type: cell-based, human
How it was run: as §3

coxsackievirus B5 (CVB5) = assay: Antiviral cell culture assay (EC50), coxsackievirus B5; type: cell-based; settings: Enterovirus B
coxsackievirus B2 (CVB2) = assay: Antiviral cell culture assay (EC50), coxsackievirus B2; type: cell-based; settings: Enterovirus B
echovirus 9 (ECHO-9) = assay: Antiviral cell culture assay (EC50), echovirus 9; type: cell-based; settings: Enterovirus B; ECHO9
[10] = uninfected (mock-infected), line of CAV-21

CCOC(=O)/C=C/[C@H](CCC(N)=O)NC(=O)[C@H](Cc1ccccc1)n1cccc(NC(=O)OCc2ccccc2)c1=O [Compound 1, trans-(2′S,4S)-4-[2′-(3″-Benzyloxycarbonylamino-2″-oxo-2″H-pyridin-1″-yl)-3′-phenylpropionylamino]-6-carbamoylhex-2-enoic Acid Ethyl Ester]
EC50 [1]: 1480 nM | CC50 at 2 days ([2]; mock-infected, line of HRV-14): 50100 nM | CC50 at 2 days [2, 10]: > 10000 nM | CC50 at 1 day ([2]; uninfected (mock-infected)): > 10000 nM | kinact/KI ([3]; HRV-14): 114000 M⁻¹ s⁻¹ | EC50 [4]: 160 nM | EC50 (HRV-14; HRV-14, read-out: EC50): 33 nM | CC50 at 4 days [5]: > 10000 nM | CC50 (MRC-5 cells): > 10000 nM | EC50 [6]: 12 nM | EC50 [7]: 539 nM

CCOC(=O)/C=C\[C@H](CCC(N)=O)NC(=O)[C@H](Cc1ccccc1)n1cccc(NC(=O)c2cc(C)on2)c1=O [Compound 5, trans-(2′S,4S)-6-Carbamoyl-4-(2′-{3″-[(5′″-methylisoxazole-3′″-carbonyl)amino]-2″-oxo-2″H-pyridin-1″-yl}-3′-phenylpropionylamino)hex-2-enoic Acid Ethyl Ester]
EC50 [1]: 1390 nM | CC50 at 2 days ([2]; mock-infected, line of HRV-14): > 10000 nM | CC50 at 2 days [2, 10]: > 10000 nM | CC50 at 1 day ([2]; uninfected (mock-infected)): > 10000 nM | kinact/KI ([3]; HRV-14): 329000 M⁻¹ s⁻¹ | EC50 [4]: 54 nM | EC50 (HRV-14; HRV-14, read-out: EC50): 16 nM | CC50 at 4 days [5]: > 10000 nM | CC50 (MRC-5 cells): > 10000 nM | EC50 [6]: 18 nM | EC50 [7]: 577 nM

CCOC(=O)/C=C/[C@H](CCC(N)=O)NC(=O)[C@H](Cc1ccccc1)n1cccc(NC(=O)C2CCCC2)c1=O [Compound 6, trans-(2′S,4S)-6-Carbamoyl-4-{2′-[3″-cyclopentanecarbonylamino-2″-oxo-2″H-pyridin-1″-yl]-3′-phenylpropionylamino}hex-2-enoic Acid Ethyl Ester]
EC50 [1]: 4680 nM | CC50 at 2 days ([2]; mock-infected, line of HRV-14): > 10000 nM | CC50 at 2 days [2, 10]: > 10000 nM | CC50 at 1 day ([2]; uninfected (mock-infected)): > 10000 nM | kinact/KI ([3]; HRV-14): 37400 M⁻¹ s⁻¹ | EC50 [4]: 346 nM | EC50 (HRV-14; HRV-14, read-out: EC50): 34 nM | CC50 at 4 days [5]: > 10000 nM | CC50 (MRC-5 cells): > 10000 nM | EC50 [6]: 61 nM | EC50 [7]: 2500 nM

CC[C@@H](C(=O)N[C@H](/C=C/C(=O)OC1CCC1)C[C@@H]1CCNC1=O)n1cccc(NC(=O)c2cc(C)on2)c1=O [Compound 59, trans-(2′S,3′″″S,4S)-4-[2′-(3″-{[1′″-(5″″-Methylisoxazol-3″″-yl)methanoyl]amino}-2′″oxo-2′″H-pyridin-1′″-yl)butanoylamino]-5-(2′″″-oxopyrrolidin-3′″″-yl)pent-2-enoic Acid Cyclobutyl Ester]
EC50 ([8]; H1-HeLa, HRV-1A): 84 nM | EC50 ([8]; H1-HeLa, HRV-2): 49 nM | EC50 ([8]; H1-HeLa, HRV-23): 37 nM | EC50 ([8]; Human rhinovirus sp., H1-HeLa, HRV-Hanks): 83 nM | EC50 ([8]; Human rhinovirus sp., HRV3, H1-HeLa, HRV-3): 33 nM | EC50 ([8]; Human rhinovirus sp., HRV9, H1-HeLa, HRV-9): 70 nM | EC50 ([8]; Human rhinovirus sp., HRV10, H1-HeLa, HRV-10): 58 nM | EC50 ([8]; Human rhinovirus sp., HRV11, H1-HeLa, HRV-11): 14 nM | EC50 ([8]; Human rhinovirus sp., HRV13, H1-HeLa, HRV-13): 12 nM | EC50 ([8]; Human rhinovirus sp., HRV16, H1-HeLa, HRV-16): 105 nM | EC50 ([8]; Human rhinovirus sp., HRV19, H1-HeLa, HRV-19): 44 nM | EC50 ([8]; Human rhinovirus sp., HRV25, H1-HeLa, HRV-25): 42 nM | EC50 ([8]; Human rhinovirus sp., HRV39, H1-HeLa, HRV-39): 122 nM | EC50 ([8]; Human rhinovirus sp., HRV78, H1-HeLa, HRV-78): 73 nM | CC50 ([9]; CVB2): > 10000 nM | CC50 ([9]; CVB5): > 10000 nM | CC50 ([9]; ECHO9): > 10000 nM | CC50 at 2 days ([2]; mock-infected, HRV-14): > 10000 nM | CC50 (H1-HeLa cells; HRV-1A): > 10000 nM | CC50 (H1-HeLa cells; HRV-2): > 10000 nM | CC50 (H1-HeLa cells; HRV-3): > 10000 nM | CC50 (H1-HeLa cells; HRV-9): > 10000 nM | CC50 (H1-HeLa cells; HRV-10): > 10000 nM | CC50 (H1-HeLa cells; HRV-11): > 10000 nM | CC50 (H1-HeLa cells; HRV-13): > 10000 nM | CC50 (H1-HeLa cells; HRV-16): > 10000 nM | CC50 (H1-HeLa cells; HRV-19): > 10000 nM | CC50 (H1-HeLa cells; HRV-23): > 10000 nM | CC50 (H1-HeLa cells; HRV-25): > 10000 nM | CC50 (H1-HeLa cells; HRV-39): > 10000 nM | CC50 (H1-HeLa cells; HRV-78): > 10000 nM | CC50 (H1-HeLa cells; HRV-Hanks): > 10000 nM | kinact/KI ([3]; HRV-14 3C protease): 170000 M⁻¹ s⁻¹ | EC50 (coxsackievirus B5 (CVB5)): 40 nM | EC50 (coxsackievirus B2 (CVB2)): 50 nM | EC50 (echovirus 9 (ECHO-9)): 40 nM | EC50 (HRV-14): 20 nM
